pIC50: −log10 of the molar value. Read-outs that look alike come from different tables or passages of the source.
Target: T1, V600E full-length B-Raf (Homo sapiens, UniProt P15056, V600E)
T1 construct: 1 μM FSBA-MEK and 20 nM V600E full-length B-Raf; made in house; host or cells: sf9 insect cells (baculovirus)
Experiment: B-Raf IC50 Assay (B-RAF V600E inhibition assay, Example A)
Assay type: biochemical
How it was run: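 Full-length V600E B-Raf (20 nM, from Sf9 baculovirus) was preincubated 15 min with 1 μM FSBA-modified wild-type MEK in pH 7.2 Pipes/KCl/MgCl2 buffer, then started with 4 μM ATP plus [γ-33P]ATP. After 60 min at 22 °C, TCA-quenched product was filter-captured and 33P incorporation counted by scintillation.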

[1] = B-Raf V600E assay of Example A: less than 100 nM, read-out: IC50
[2] = B-Raf V600E assay of Example A: less than about 1 μM, read-out: IC50
[3] = incorporation of radio labeled phosphate from [γ-33P]ATP into FSBA-modified wild-type MEK, 4 μM ATP, 20 nM V600E full-length B-Raf, 60-minute incubation, 22° C., read-out: BRAF V600E IC50

T1 sequence (P15056 whole entry V600E): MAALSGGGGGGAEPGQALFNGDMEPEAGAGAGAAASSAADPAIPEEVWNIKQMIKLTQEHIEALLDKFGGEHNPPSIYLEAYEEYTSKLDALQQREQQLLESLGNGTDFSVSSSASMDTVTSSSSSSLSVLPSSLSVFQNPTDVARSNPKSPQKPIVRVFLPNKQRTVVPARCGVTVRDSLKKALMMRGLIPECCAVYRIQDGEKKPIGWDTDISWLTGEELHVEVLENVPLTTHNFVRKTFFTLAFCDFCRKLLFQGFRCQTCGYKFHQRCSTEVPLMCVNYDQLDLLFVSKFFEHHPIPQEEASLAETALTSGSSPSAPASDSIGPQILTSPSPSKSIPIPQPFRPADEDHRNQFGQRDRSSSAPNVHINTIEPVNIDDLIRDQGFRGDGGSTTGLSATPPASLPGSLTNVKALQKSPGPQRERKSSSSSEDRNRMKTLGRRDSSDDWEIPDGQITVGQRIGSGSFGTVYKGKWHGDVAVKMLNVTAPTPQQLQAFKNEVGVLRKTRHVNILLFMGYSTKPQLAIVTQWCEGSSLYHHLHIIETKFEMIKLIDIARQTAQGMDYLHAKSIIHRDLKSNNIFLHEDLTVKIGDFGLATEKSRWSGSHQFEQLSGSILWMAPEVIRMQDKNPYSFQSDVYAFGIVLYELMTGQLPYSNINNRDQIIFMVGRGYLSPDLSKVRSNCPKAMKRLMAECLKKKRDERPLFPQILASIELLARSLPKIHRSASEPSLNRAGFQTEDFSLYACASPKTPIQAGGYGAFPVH

Row | SMILES | pIC50 [1] | pIC50 [2] | pIC50 [3]
1 | CCCS(=O)(=O)Nc1ccc(Cl)c(NC(=O)c2csc3c(NC(C)C)ncnc23)c1Cl [Example 70, 4-Isopropyl-amino-thieno [3,2-d] pyrimidine-7-carboxylic acid [2 6-dichloro-3-(propane-1-sulfonyl-amino)-phenyl]-amide] | > 7.00 | > 6.00 | 8.47
2 | CCCS(=O)(=O)Nc1ccc(Cl)c(NC(=O)c2csc3c(NC#N)ncnc23)c1Cl [Example 73, 4-Cyano-amino-thieno[3,2-d] pyrimidine-7-carboxylic acid [2,6-dichloro-3-(propane-1-sulfonyl-amino)-phenyl]amide] | > 7.00 | > 6.00 | 7.85
3 | CCCS(=O)(=O)Nc1ccc(Cl)c(NC(=O)c2csc3c(NCCF)ncnc23)c1Cl [Example 74, 4-(2-Fluoro-ethylamino)-thieno[3,2-d] pyrimidine-7-carboxylic acid [2,6-dichloro-3-(propane-1-sulfonyl-amino)-phenyl]amide] | > 7.00 | > 6.00 | 9.30
4 | CCCS(=O)(=O)Nc1ccc(Cl)c(NC(=O)c2csc3c(NC4CCOCC4)ncnc23)c1Cl [Example 77, 4-(Tetrahydro-pyran-4-ylamino)-thieno[3,2-d] pyrimidine-7-carboxylic acid [2,6-dichloro-3-(propane-1-sulfonyl-amino)-phenyl]-amid] | > 7.00 | > 6.00 | 7.11

Next, values leading:

Row | pIC50 [1] | pIC50 [2] | pIC50 [3] | SMILES
5 | > 7.00 | > 6.00 | 7.84 | CCCS(=O)(=O)Nc1ccc(Cl)c(NC(=O)c2csc3c(NC4CCOC4)ncnc23)c1Cl (centres unmarked) [Example 71, 4-(Tetrahydro-furan-3-ylamino)-thieno[3,2-d] pyrimidine-7-carboxylic acid [2,6-dichloro-3-(propane-1-sulfonyl-amino)phenyl]-amid]
6 | > 7.00 | > 6.00 | 8.62 | CCCS(=O)(=O)Nc1ccc(Cl)c(NC(=O)c2csc3c(NC4CCC4)ncnc23)c1Cl [Example 72, 4-Cyclobutyl-amino-thieno [3,2-d] pyrimidine-7-carboxylic acid [2,6-dichloro-3-(propane-1-sulfonyl-amino)-phenyl]-amide]
7 | – | – | < 6.00 | CCCS(=O)(=O)Nc1ccc(Cl)c(NC(=O)c2csc3c(NC4CN(C)C4)ncnc23)c1Cl [Example 75, 4-(1-Methyl-azetidin-3-ylamino)-thieno[3,2-d] pyrimidine-7-carboxylic acid [2,6-dichloro-3-(propane-1-sulfonyl-amino)-phenyl]amide]
8 | > 7.00 | > 6.00 | 9.22 | CCCS(=O)(=O)Nc1ccc(Cl)c(NC(=O)c2csc3c(NCC)ncnc23)c1Cl [Example 76, 4-Ethylamino-thieno[3,2-d] pyrimidine-7-carboxylic acid [2,6-dichloro-3-(propane-1-sulfonyl-amino)-phenyl]-amide]
9 | > 7.00 | > 6.00 | 7.93 | CCCS(=O)(=O)Nc1ccc(Cl)c(NC(=O)c2csc3c(NCC(F)(F)F)ncnc23)c1Cl [Example 78, 4-(2,2,2-Trifluoro-ethylamino)-thieno[3,2-d] pyrimidine-7-carboxylic acid [2,6-dichloro-3-(propane-1-sulfonyl-amino)-phenyl]-amide]
10 | – | > 6.00 | 6.80 | CCCS(=O)(=O)Nc1ccc(Cl)c(NC(=O)c2csc3c(NC4CCNCC4)ncnc23)c1Cl [Example 79, 4-(Piperidin-4-ylamino)-thieno[3,2-d] pyrimidine-7-carboxylic acid [2,6-dichloro-3-(propane-1-sulfonyl-amino)-phenyl]amide]
11 | – | > 6.00 | 6.38 | CCCS(=O)(=O)Nc1ccc(Cl)c(NC(=O)c2csc3c(NC4CCC(F)(F)CC4)ncnc23)c1Cl [Example 80, 4-(4,4-Difluoro-cyclohexyl-amino)-thieno[3,2-d] pyrimidine-7-carboxylic acid [2,6-dichloro-3-(propane-1-sulfonyl-amino)-phenyl]-amide]
